Source: paper PMC10959927, “Platinum iodido drugs show potential anti-tumor activity, affecting cancer cell metabolism and inducing ROS and senescence in gastrointestinal cancer cells” (Communications Biology, 2024)
Where “and” joins values, the source holds several entries; their conditions need not be identical. Identical values can stand only once.

Key:
Format in all cases: cell-based, human
PANC1 cells [1] = assay: ATP determination assay (bioluminescence); settings: replicates
Protocol: (§1) ATP determination assay. […] The analysis was performed using the ATP Bioluminescense Assay Kit CLS II (Cat. no. 11699695001, Roche) according to the manufacturer’s instructions. […] Data were normalized to total protein using the BCA protein assay kit (Thermo Scientific).

MKN45 cells [2] = assay: ATP determination assay (bioluminescence); settings: replicates
Protocol: as §1

AGS cells [3] = assay: ATP determination assay (bioluminescence); settings: replicates
Protocol: as §1

PANC1 cells [4] = assay: ROS detection by confocal microscopy (DHE, MitoSox); settings: PANC1, 1 h treatment; H2O2 200 µM, CDDP 10 µM, I5 20 µM, I6 20 µM
Protocol: Tumor cells were seeded at a density of 3 × 10^5 cells in 15 µm 8-well IBIDI plates and incubated overnight. […] Subsequently, cells were stained with 10 μM of dihydroethidium (DHE, cytosolic O2^·- probe, Sigma-Aldrich) or with 5 μM of Mitosox (mitochondrial O2^·- probe, Sigma-Aldrich) for 15–30 min[79] and then visualized on a confocal microscope (Confocal LSM 710 Zeiss, Biomedical Research Institute Alberto Sols, IIBm-CSIC-UAM, Madrid, Spain). The image analysis was realized using the software program Image J.

AGS cells [5] = assay: Seahorse XF OCR, ECAR and energy map; settings: AGS, IC50 24 h
Protocol: (§2) Oxygen Consumption Rate (OCR), Extra Cellular Acidification Rate (ECAR) and Energy map measurements. Cells were plated in XF HS Miniplates (Seahorse Bioscience) at a cellular density of 1 × 10^4 cells/well and incubated overnight. […] After an OCR baseline measurement, the minimum oxygen consumption was determined by adding 1.5 µM oligomycin (O) and the maximal respiration rate was assessed by adding 1 µM carbonyl cyanide p-trifluoro methoxyphenylhydrazone (FCCP, F). At the end of the experiment, the non-mitochondrial oxygen consumption was evaluated by adding both 0.5 µM rotenone (R) and antimycin (A). Experiments were run in a XF HS Mini analyzer (Seahorse Agilent), and raw data were normalized to total protein using a BCA protein assay kit (Cat. no. 23225, Thermo Scientific).

PANC1 cells [6] = assay: Lactate production assay; settings: replicates
Protocol: (§3) Lactate production assay. […] Proteins were removed from 50 μL of the medium by adding 100 μL of 8% Percloric Acid and 40% EtOH at 4 °C, and centrifuging at 2 × 10^4 g for 10 min at 4 °C. The supernatants were then frozen until the lactate in 15 μL of each sample, or lactate standard, was measured mixed with 150 μl of assay buffer (0.5 M glycine [pH 9.5], 0.2 M Hydrazine, 3.4 mM EDTA), 100 μl of H20, 5 μL of 1100 U/mL LDH (Roche) and 30 μL of 15 mM NAD + . NADH production was evaluated by measuring absorbance at 340 nm in a multiplate reader (Synergy HT, Biotek) and it was proportional to the lactic acid concentration in the sample after a 2 h incubation. The lactate concentration was normalized to the total amount of protein measured with the Micro BCA Protein Assay Kit (Thermo Scientific). Assays were performed in triplicate in three independent experiments.

MKN45 cells [7] = assay: Lactate production assay; settings: replicates
Protocol: as §3

AGS cells [8] = assay: Lactate production assay; settings: replicates
Protocol: as §3

MKN45 cells [9] = assay: Clonogenic (CFU) assay with or without NAC; settings: 10 days
Protocol: (§4) For the clonogenic assay we used two different approaches. […] Then, cells were cultured in a 6-well plate at a very low concentration (2 × 10^3 cells per well) and incubated for 10 days. […] To evaluate the role of ROS in cell proliferation, we supplemented the growth medium with 0.5 mM NAC. After 10 days, the cells were fixed with 1% glutaraldehyde and stained with 0.1% crystal violet. The number of colonies was quantified directly and reflected as CFUs: Colony Forming Units.

AGS cells [10] = assay: Clonogenic (CFU) assay with or without NAC; settings: 10 days
Protocol: as §4

PANC1 cells [11] = assay: Seahorse XF OCR, ECAR and energy map; parameters: Basal resp. / Maximal resp. / SRC: unit not given here; settings: PANC1, IC50 24 h
Protocol: as §2

MKN45 cells [12] = assay: Seahorse XF OCR, ECAR and energy map; parameters: Basal resp. / Maximal resp. / SRC: unit not given here; settings: MKN45, IC50 24 h
Protocol: as §2

CC(C)[NH][Pt@SP3]([I])([I])[NH]C(C)C [I5, trans-[PtI2(isopropylamine)2]]
ATP assay (PANC1 cells [1]): 7640.3 nmoles ATP/mg prot and 496.05 nmoles ATP/mg prot and 2595.09 nmoles ATP/mg prot and 2106 nmoles ATP/mg prot and 8408.46 nmoles ATP/mg prot and 9059.04 nmoles ATP/mg prot and 9127 nmoles ATP/mg prot and 10292.6 nmoles ATP/mg prot and 9600 nmoles ATP/mg prot
ATP assay (MKN45 cells [2]): 11672 nmoles ATP/mg prot and 496.26 nmoles ATP/mg prot and 8257.16 nmoles ATP/mg prot and 8443 nmoles ATP/mg prot and 9557.85 nmoles ATP/mg prot and 7684.95 nmoles ATP/mg prot and 11572 nmoles ATP/mg prot and 11682.5 nmoles ATP/mg prot and 9034.25 nmoles ATP/mg prot
ATP assay (AGS cells [3]): 8571 nmoles ATP/mg prot and 150.2 nmoles ATP/mg prot and 0.01 nmoles ATP/mg prot and 0.05 nmoles ATP/mg prot and 4895.31 nmoles ATP/mg prot and 5882.71 nmoles ATP/mg prot and 4424 nmoles ATP/mg prot and 7769.74 nmoles ATP/mg prot and 709.57 nmoles ATP/mg prot
DHE fluorescence intensity (per cell), cytosolic O2•− (PANC1 cells [4]): 90.3731 and 85.3678 and 75.6942 and 74.4248 and 73.3485 and 72.8941
effect on ECAR (AGS cells [5]): strong effect
OCR (AGS cells [5]; time 21.13 min (I5) / 21.08 min (I6)): 33.7993 pmoles/min/µg protein and 17.1923 pmoles/min/µg protein and 31.197 pmoles/min/µg protein
OCR (AGS cells [5]; time 60.15 min (I5) / 60.16 min (I6)): 22.0275 pmoles/min/µg protein and 13.2859 pmoles/min/µg protein and 22.5877 pmoles/min/µg protein
OCR (AGS cells [5]; time 66.63 min (I5) / 66.65 min (I6)): 21.2372 pmoles/min/µg protein and 12.4063 pmoles/min/µg protein and 20.3044 pmoles/min/µg protein
OCR (AGS cells [5]; time 73.12 min (I5) / 73.14 min (I6)): 19.5577 pmoles/min/µg protein and 11.425 pmoles/min/µg protein and 19.4877 pmoles/min/µg protein
lactate assay (PANC1 cells [6]): 5.32 Lactate mM/mg prot and 7.44 Lactate mM/mg prot and 7.29 Lactate mM/mg prot and 4.009 Lactate mM/mg prot and 7.435 Lactate mM/mg prot and 6.316 Lactate mM/mg prot and 4.98 Lactate mM/mg prot and 4.88 Lactate mM/mg prot and 4.97 Lactate mM/mg prot
lactate assay (MKN45 cells [7]): 3.26 Lactate mM/mg prot and 4 Lactate mM/mg prot and 1.31 Lactate mM/mg prot and 1.423 Lactate mM/mg prot and 0.8373 Lactate mM/mg prot and 1.863 Lactate mM/mg prot and 1.55 Lactate mM/mg prot and 1.53 Lactate mM/mg prot and 1.48 Lactate mM/mg prot
lactate assay (AGS cells [8]): 1.16 Lactate mM/mg prot and 3.26 Lactate mM/mg prot and 1.86 Lactate mM/mg prot and 0.01 Lactate mM/mg prot and 0.05431 Lactate mM/mg prot and 0.02716 Lactate mM/mg prot and 0.02 Lactate mM/mg prot and 0.03 Lactate mM/mg prot
colonies (CFUs), mean ± SD (MKN45 cells [9]; MKN45 + NAC 0.5 mM, IC25 concentration): 99 ± 6
colonies (CFUs), mean ± SD (MKN45 cells [9]; MKN45 + NAC 0.5 mM, IC50 concentration): 52 ± 21
colonies (CFUs), mean ± SD (MKN45 cells [9]; MKN45, IC25 concentration, no NAC): 0
colonies (CFUs), mean ± SD (MKN45 cells [9]; MKN45, IC50 concentration, no NAC): 0
colonies (CFUs), mean ± SD (AGS cells [10]; AGS + NAC 0.5 mM, IC25 concentration): 106 ± 46
colonies (CFUs), mean ± SD (AGS cells [10]; AGS + NAC 0.5 mM, IC50 concentration): 2.3 ± 2.5
colonies (CFUs), mean ± SD (AGS cells [10]; AGS, IC25 concentration, no NAC): 0
colonies (CFUs), mean ± SD (AGS cells [10]; AGS, IC50 concentration, no NAC): 0
Basal resp. (PANC1 cells [11]): 4.37 and 2.91 and 2.68
effect on ECAR (PANC1 cells [11]): strong effect
OCR (PANC1 cells [11]; time 14.5 min (I5) / 14.5 min (I6)): 10.9576 pmoles/min/µg protein and 5.698 pmoles/min/µg protein and 5.804 pmoles/min/µg protein
OCR (PANC1 cells [11]; time 21.08 min (I5) / 21.07 min (I6)): 8.99 pmoles/min/µg protein and 4.967 pmoles/min/µg protein and 6.036 pmoles/min/µg protein
OCR (PANC1 cells [11]; time 60.22 min (I5) / 60.14 min (I6)): 6.526 pmoles/min/µg protein and 3.324 pmoles/min/µg protein and 3.875 pmoles/min/µg protein
Basal resp. (MKN45 cells [12]): 41.12 and 25.16 and 29.99
Maximal resp. (MKN45 cells [12]): 70.47 and 41.2 and 48.53
SRC (MKN45 cells [12]): 29.35 and 16.04 and 18.54
effect on ECAR (MKN45 cells [12]): strong effect
OCR (MKN45 cells [12]; time 1.53 min (I5) / 1.53 min (I6)): 87.0221 pmoles/min/µg protein and 65.8202 pmoles/min/µg protein and 67.2404 pmoles/min/µg protein
OCR (MKN45 cells [12]; time 8.04 min (I5) / 8.03 min (I6)): 81.395 pmoles/min/µg protein and 60.0787 pmoles/min/µg protein and 61.987 pmoles/min/µg protein
OCR (MKN45 cells [12]; time 14.51 min (I5) / 14.5 min (I6)): 68.3352 pmoles/min/µg protein and 45.5888 pmoles/min/µg protein and 48.6636 pmoles/min/µg protein
OCR (MKN45 cells [12]; time 40.66 min (I5) / 40.62 min (I6)): 96.0748 pmoles/min/µg protein and 62.8442 pmoles/min/µg protein and 67.0243 pmoles/min/µg protein
OCR (MKN45 cells [12]; time 53.68 min (I5) / 53.58 min (I6)): 97.9086 pmoles/min/µg protein and 60.6467 pmoles/min/µg protein and 66.2231 pmoles/min/µg protein
OCR (MKN45 cells [12]; time 60.27 min (I5) / 60.14 min (I6)): 32.7644 pmoles/min/µg protein and 24.8353 pmoles/min/µg protein and 23.7602 pmoles/min/µg protein
OCR (MKN45 cells [12]; time 66.75 min (I5) / 66.62 min (I6)): 29.7633 pmoles/min/µg protein and 21.9547 pmoles/min/µg protein and 20.2025 pmoles/min/µg protein
OCR (MKN45 cells [12]; time 73.23 min (I5) / 73.1 min (I6)): 27.2124 pmoles/min/µg protein and 20.4304 pmoles/min/µg protein and 18.6726 pmoles/min/µg protein
